Data from patent US12440475B2, “Hodgkin lymphoma therapy” (priority 2016, dated 2025).

What was measured:
[1] = tested on: Hodgkin lymphoma cell lines (KMH2, HDML2, L540, L1236 and L426); assay: IC50 comparison of bendamustine, vorinostat and EDO-S101, five cell lines; type: cell-based, human; conditions: Homo sapiens; range over all cell lines tested, including L1236-R
Protocol: (§1) • (a) Five Hodgkin lymphoma cell lines (KMH2, HDML2, L540, L1236 and L426) were cultured separately in the presence of bendamustine, vorinostat and EDO-S101 dissolved in DMSO at 37° C. L1236-derived Hodgkin lymphoma cell lines were selected as they have an acquired stable resistance to bendamustine (R100) or an ability to display continuous growth upon extended exposure to sub-lethal concentrations of bendamustine (R25, R50 and R75). A detailed description of the L1236-R Hodgkin lymphoma cell lines is disclosed in De Filippi et al, ASH 2015, Abstract. #2479. In these tests, the L1236-100R bendamustine resistant strain was used. […] Control cells were cultured in the same final concentration of DMSO. The number of viable cells was assessed at 24, 48 and 72 hours through a Countess™ automated cell counter (Invitrogen), each experiment being repeated three times and the results given being the mean of the three results±SD.

L1236-R100 = assay: Viable cell count and IC50, bendamustine-resistant cell line; type: cell-based, human; conditions: Homo sapiens; R100 cell line
Protocol: as §1

[2] = tested on: relapsed-refractory Hodgkin lymphoma; conditions: cited from earlier work
R100 = assay: Combination with Brentuximab Vedotin, % survival, R100; type: cell-based, human; conditions: Brentuximab Vedotin 0.39 μg/ml (typically 10-fold lower than IC50) with EDO-S101 1.56 μM
Protocol: 1.56 μM of EDO-S101 was administered to two Hodgkin lymphoma cell lines, the bendamustine naïve cell line L1236 and the bendamustine resistant cell line R100. In a second experiment, Brentuximab Vedotin was administered at a concentration of 3.12 μg/ml to the L1236 cell line and at a concentration of 0.39 μg/ml to the R100 cell line. Finally, in a third experiment EDO-S101 and Brentuximab Vedotin were administered in combination to each of the two cell lines at the same concentrations that they were administered in the monotherapy experiments.

Compound: Cn1c(CCCC(=O)O)nc2cc(N(CCCl)CCCl)ccc21 [bendamustine, reference compound]
- IC50 [1]: 11 to 17 µM
- IC50 (L1236-R100): ~140 µM
- patients resistant to bendamustine [2]: about 40%

Compound: Brentuximab Vedotin
- cytotoxic effect in combination with EDO-S101 (R100): considerable cytotoxic effect
